Experiment [1] concerns glucose metabolism in NOD mice. The experiment is described as follows: Intraperitoneal Glucose Tolerance Test (IPGTT) in NOD mice. The settings on record: NOD mice, three injections of 1 mg each, 3 days apart; 25 weeks. The class given is in vivo, mouse. As to the method: Intraperitoneal Glucose Tolerance Test (IPGTT): The glucose tolerance test is the definitive method for investigating glucose metabolism and diabetic tendencies in mammals. Twenty five (25) weeks after receiving Synthetic peptides derived from casein, response to a glucose load was assessed with an intraperitoneal glucose tolerance test. Glucose injection consisted of 1 g/kg body weight. Glycemic values were determined from blood drawn prior to test (0 minutes) and 60 minutes after loading.

Experiment [2] has as its system Juvenile (Type I, IDDM) diabetes in NOD mice. The experiment is described as follows: Glucosuria in Non-Obese Diabetic (NOD) mice. The class given is in vivo, mouse. The settings on record: three injections of 1 mg each, 3 days apart, at 25 weeks. As to the method: Juvenile (Type I, IDDM) diabetes in Non-Obese Diabetic (NOD) mice:
Peptides derived from natural casein: NOD mice are a commonly used model for research of autoimmune disease and human Juvenile Diabetes. Six week old female NOD mice received either one or two injections per week of 100 μg of peptides derived from natural casein, for a total of 5 or 10 treatments. Control mice received no treatment. The severity of disease was determined according to glucosuria, which was measured using Combi test sticks [Gross, D. J. et al. (1994), Diabetology, 37:1195]. Results were expressed as the percent of glucosuria-free mice in each sample over a 365-day period.
Synthetic peptides derived from casein: In another experiment, 6 week old female NOD mice received two injections per week of 100 μg of Synthetic peptides derived from casein for a total of 10 treatments, or three injections of 1 mg each, 3 days apart, for a total of 3 treatments. Control mice received no treatment. Results were expressed as the number of healthy mice in the various treated groups.

Experiment [3] concerns peripheral white blood cells of myeloablated, bone marrow transplanted mice. The experiment is described as follows: Leukocyte reconstitution in irradiated bone marrow transplant recipient mice. The class given is in vivo, mouse. The settings on record: BALB/c, 600 cGy, 1 mg per mouse i.p.
Experiment [4] concerns murine primary bone marrow cells (CFU-GEMM). The experiment is described as follows: Multipotential colonies (CFU-GEMM) from murine bone marrow cells, colony and differential counts. The class given is cell-based, mouse. The conditions noted are these: 8 days treatment. As to the method:
Proliferation of megakaryocytes in multipotential colonies (CFU-GEMM) from murine Bone Marrow cells: Primary bone marrow cells (1×10^5 per ml) from 8-12 week-old C3H/HeJ mice were grown in serum-free methyl cellulose-IMDM medium for 8-9 days at 5% CO2, 95% air, at 37° C. The medium, appropriate for the growth of multipotential colonies (CFU-GEMM), contained 1% BSA (Sigma), 10^−4 M thioglycerol (Sigma), 2.8×10^−4 M human transferrin (TF, Biological industries, Israel), 10% WEHI-CM as a source of IL-3 and 2 units per ml erythropoietin (rhEPO, R & D Systems, Minneapolis). […] They were picked with a micropipette, cytocentrifuged and stained with May-Grunwald-Giemsa for differential counts. At least 700 cells were counted for each preparation. […]

“And” between values parts separate entries of the source, which are not always exact repeats. Equal values may be shown once. Where only a bound is given, the exact number is not on record here.

RPKHPIKHQGLPQEV [C]: in experiment [1], the “blood glucose values in response to a glucose load (IPTG test)” value is 101 and 113 and 102. Further, in experiment [2], the “mice in which no glucosuria was detected” value is reported as 3 out of 5. Also, the entries for the “peripheral white blood cell count” value in experiment [3] (day 10) and in experiment [3] (day 12) were 1.72 ×10^6 cells per ml and 6.54 ×10^6 cells per ml, respectively.

In the case of RPKHPIKHQGLPQEVLNEN, in experiment [1], the “blood glucose values in response to a glucose load (IPTG test)” value is reported as below 120. Also, the “mice in which no glucosuria was detected” value in experiment [2] is on record as “two out of 5”. Further, the “megakaryocyte formation and development (in words)” value in experiment [4] was “significant increase”.
